Laboratory results as given in ChEMBL document CHEMBL1201862, “PubChem BioAssay data set” (2004).
Calls of active or inactive are those of the source.

Key:
[1] = biological target: 72 kDa type IV collagenase (Homo sapiens, UniProt P08253); experiment: Dose Response validation of uHTS RPN11 inhibitor hits using a MMP-2 Fluorescence assay.; assay type: functional
[2] = biological target: 26S proteasome non-ATPase regulatory subunit 14 (Homo sapiens, UniProt O00487); experiment: inhibition of proteasome subunit RPN11 – biochemical, fluorescence polarization, uHTS hits, confirmation (AID 602368); assay type: functional
26S proteasome non-ATPase regulatory subunit 14, sequence (O00487 whole entry): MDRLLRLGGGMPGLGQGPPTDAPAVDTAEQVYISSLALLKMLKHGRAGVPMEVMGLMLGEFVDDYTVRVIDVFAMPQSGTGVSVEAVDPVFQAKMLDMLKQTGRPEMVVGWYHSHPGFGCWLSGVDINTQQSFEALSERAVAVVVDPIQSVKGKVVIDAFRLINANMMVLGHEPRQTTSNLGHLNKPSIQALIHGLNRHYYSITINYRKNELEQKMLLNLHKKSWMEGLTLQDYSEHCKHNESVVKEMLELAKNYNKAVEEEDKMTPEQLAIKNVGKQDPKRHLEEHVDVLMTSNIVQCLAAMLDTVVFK

Prothrombin = Prothrombin (Bos taurus, UniProt P00735); experiment: thrombin inhibition, dose response, biochemical, fluorescence polarization, uHTS hits (AID 602369); assay type: functional
[3] = biological target: T1, Probable nicotinate-nucleotide adenylyltransferase (Staphylococcus aureus (strain N315), UniProt P65502); assay type: functional, Staphylococcus aureus subsp. aureus N315;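 as to IC50 Mean: confirmatory dose-response retesting of NadD inhibitor hits first found in an ultra-high-throughput screen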
T1 sequence (P65502 whole entry): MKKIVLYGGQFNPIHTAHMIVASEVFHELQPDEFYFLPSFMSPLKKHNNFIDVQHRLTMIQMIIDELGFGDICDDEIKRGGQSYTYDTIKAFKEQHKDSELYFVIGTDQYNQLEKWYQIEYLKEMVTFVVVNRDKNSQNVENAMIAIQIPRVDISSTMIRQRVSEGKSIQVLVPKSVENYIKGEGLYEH

[4] = biological target: T1, Probable nicotinate-nucleotide adenylyltransferase; assay type: functional, Staphylococcus aureus subsp. aureus N315; conditions: read-out: IC50_Mean
[5] = biological target: T2, Small ubiquitin-related modifier 1 (Homo sapiens, UniProt P63165); experiment: inhibitors of SUMO1 partner interactions, dose response, biochemical, FRET (AID 624383); assay type: functional; conditions: read-out: IC50_Mean
T2 sequence (P63165 whole entry): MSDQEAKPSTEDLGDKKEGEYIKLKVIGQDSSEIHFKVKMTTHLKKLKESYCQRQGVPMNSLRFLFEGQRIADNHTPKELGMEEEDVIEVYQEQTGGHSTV

[6] = biological target: Tyrosine-protein phosphatase non-receptor type 5 (Homo sapiens, UniProt P54829); experiment: STEP phosphatase inhibitors, confirmation, biochemical, fluorescence intensity, uHTS hits (AID 602372); assay type: functional; conditions: read-out: IC50_Mean
Tyrosine-protein phosphatase non-receptor type 5, sequence (P54829 whole entry): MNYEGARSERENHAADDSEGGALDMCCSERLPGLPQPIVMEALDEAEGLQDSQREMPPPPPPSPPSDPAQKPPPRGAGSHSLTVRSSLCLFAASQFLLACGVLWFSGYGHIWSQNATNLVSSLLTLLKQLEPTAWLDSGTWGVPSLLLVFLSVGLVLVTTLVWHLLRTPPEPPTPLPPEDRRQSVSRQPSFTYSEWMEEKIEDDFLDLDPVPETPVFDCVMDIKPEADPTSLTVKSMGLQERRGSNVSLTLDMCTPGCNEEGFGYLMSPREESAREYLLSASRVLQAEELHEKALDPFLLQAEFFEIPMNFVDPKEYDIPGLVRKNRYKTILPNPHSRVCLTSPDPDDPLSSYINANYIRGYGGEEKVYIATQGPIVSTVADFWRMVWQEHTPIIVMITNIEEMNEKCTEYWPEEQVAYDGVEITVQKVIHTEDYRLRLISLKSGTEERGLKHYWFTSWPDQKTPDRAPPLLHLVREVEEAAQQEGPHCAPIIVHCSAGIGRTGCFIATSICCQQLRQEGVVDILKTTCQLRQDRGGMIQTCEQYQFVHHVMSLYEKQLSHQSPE

[7] = biological target: Dual specificity protein phosphatase 3 (Homo sapiens, UniProt P51452); experiment: VHR phosphatase inhibition, dose response, selectivity assay for STEP inhibitor project, biochemical (AID 602374); assay type: functional; conditions: read-out: IC50_Mean
Dual specificity protein phosphatase 3, sequence (P51452 whole entry): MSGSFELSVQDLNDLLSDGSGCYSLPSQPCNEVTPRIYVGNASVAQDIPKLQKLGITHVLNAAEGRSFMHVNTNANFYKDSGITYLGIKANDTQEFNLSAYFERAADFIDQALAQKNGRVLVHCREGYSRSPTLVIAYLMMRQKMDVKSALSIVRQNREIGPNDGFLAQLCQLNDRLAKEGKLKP

[8] = biological target: T2, Small ubiquitin-related modifier 1; experiment: inhibitors of SUMO1 peptide binding, dose response, biochemical, fluorescence polarization, uHTS hits (AID 624382); assay type: functional; conditions: read-out: IC50_Mean
[9] = biological target: T3, Calpain-2 catalytic subunit (Sus scrofa, UniProt P43367); experiment: pig calpain II inhibitor potency, dose response, biochemical, fluorogenic peptide substrate (AID 1420); assay type: functional
T3 sequence (P43367 whole entry): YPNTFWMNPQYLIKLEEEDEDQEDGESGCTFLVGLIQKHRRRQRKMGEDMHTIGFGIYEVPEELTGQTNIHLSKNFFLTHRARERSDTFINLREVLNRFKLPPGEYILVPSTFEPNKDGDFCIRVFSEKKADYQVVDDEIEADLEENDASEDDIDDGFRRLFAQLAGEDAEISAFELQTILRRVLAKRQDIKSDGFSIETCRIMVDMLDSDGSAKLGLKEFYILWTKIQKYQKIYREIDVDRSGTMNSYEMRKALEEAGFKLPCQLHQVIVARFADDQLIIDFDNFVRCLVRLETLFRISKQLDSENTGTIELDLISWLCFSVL

[10] = biological target: Tyrosine-protein phosphatase non-receptor type 11 (Homo sapiens, UniProt Q06124); experiment: SHP2 phosphatase inhibition, dose response, selectivity assay for STEP inhibitor project, biochemical (AID 602367); assay type: functional; conditions: read-out: IC50_Mean
Tyrosine-protein phosphatase non-receptor type 11, sequence (Q06124 whole entry): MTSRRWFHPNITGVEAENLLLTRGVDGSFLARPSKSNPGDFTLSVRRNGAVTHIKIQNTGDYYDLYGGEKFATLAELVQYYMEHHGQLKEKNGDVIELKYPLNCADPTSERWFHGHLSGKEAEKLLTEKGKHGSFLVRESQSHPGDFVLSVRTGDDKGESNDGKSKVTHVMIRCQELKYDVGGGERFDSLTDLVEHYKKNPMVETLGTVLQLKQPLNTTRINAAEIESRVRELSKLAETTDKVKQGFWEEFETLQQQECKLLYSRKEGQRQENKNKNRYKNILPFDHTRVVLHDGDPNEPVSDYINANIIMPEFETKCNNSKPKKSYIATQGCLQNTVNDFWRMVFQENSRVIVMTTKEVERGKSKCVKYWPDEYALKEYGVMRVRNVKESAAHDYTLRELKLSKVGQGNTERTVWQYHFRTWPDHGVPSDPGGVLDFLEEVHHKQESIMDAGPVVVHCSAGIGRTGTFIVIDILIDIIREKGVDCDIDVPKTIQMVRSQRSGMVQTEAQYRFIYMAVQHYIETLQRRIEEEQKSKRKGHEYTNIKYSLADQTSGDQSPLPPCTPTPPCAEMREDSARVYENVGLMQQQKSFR

[11] = biological target: Eukaryotic translation initiation factor 4E (Mus musculus, UniProt P63073); experiment: eIF4E–eIF4G protein interaction inhibitors, dose response, biochemical, TR-FRET (AID 855); assay type: functional;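 also: potency for disrupting eIF4E binding to eIF4GI seen as loss of FRET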
Eukaryotic translation initiation factor 4E, sequence (P63073 whole entry): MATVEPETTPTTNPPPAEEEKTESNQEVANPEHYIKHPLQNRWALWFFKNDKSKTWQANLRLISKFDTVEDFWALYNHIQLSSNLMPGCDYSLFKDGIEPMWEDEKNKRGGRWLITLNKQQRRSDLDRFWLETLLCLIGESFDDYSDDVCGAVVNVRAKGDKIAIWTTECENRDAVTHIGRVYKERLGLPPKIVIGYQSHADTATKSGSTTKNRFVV

[12] = biological target: Nuclear receptor subfamily 5 group A member 2 (Homo sapiens, UniProt O00482); assay type: functional, cell-based;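 also: HEK293T cells transfected with LRH-1 and a StAR promoter luciferase reporter; potency for inhibitors that lower LRH-1 driven reporter light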
Nuclear receptor subfamily 5 group A member 2, sequence (O00482 whole entry): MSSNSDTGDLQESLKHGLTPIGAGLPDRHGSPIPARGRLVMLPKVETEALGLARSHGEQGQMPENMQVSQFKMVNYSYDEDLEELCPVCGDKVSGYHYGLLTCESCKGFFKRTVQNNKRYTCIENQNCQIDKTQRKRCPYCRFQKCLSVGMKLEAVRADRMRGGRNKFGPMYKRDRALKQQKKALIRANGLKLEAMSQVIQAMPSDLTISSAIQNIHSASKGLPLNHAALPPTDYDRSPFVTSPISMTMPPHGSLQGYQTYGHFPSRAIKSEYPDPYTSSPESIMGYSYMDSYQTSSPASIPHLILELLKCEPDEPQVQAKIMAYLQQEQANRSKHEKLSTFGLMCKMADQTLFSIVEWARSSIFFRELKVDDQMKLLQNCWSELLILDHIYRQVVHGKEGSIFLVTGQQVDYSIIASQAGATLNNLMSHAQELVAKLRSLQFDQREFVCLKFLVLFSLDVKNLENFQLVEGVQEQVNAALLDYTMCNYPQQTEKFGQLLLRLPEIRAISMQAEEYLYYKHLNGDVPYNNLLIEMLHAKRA

Steroidogenic factor 1 = Steroidogenic factor 1 (Homo sapiens, UniProt Q13285); experiment: Counterscreen for inverse agonists of the liver receptor homolog-1 (LRH-1; NR5A2): Luminescence-based cell-based high throughput dose response assay to identify inverse agonists of the Steroidogenic Factor 1 Nuclear Receptor (SF1; NR5A1).; assay type: functional
Steroidogenic factor 1, sequence (Q13285 whole entry): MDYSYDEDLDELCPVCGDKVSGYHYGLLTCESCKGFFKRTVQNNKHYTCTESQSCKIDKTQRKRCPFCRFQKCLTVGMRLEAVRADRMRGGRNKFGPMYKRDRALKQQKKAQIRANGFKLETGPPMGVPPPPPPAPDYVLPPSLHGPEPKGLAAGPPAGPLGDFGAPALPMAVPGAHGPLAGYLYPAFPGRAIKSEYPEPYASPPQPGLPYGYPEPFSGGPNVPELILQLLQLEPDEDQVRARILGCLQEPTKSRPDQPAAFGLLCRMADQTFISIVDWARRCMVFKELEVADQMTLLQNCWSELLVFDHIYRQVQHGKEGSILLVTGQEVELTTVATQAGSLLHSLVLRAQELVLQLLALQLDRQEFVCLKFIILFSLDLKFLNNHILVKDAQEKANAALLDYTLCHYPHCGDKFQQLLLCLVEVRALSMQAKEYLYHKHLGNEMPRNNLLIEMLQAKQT

[13] = StAR promoter reporter inhibition counter-screen, dose response, counter-screen for LRH-1 inverse agonist project, cell-based, luminescence, luciferase reporter (AID 651969); assay type: functional
[14] = biological target: Adenosylmethionine-8-amino-7-oxononanoate aminotransferase (Mycobacterium tuberculosis, UniProt P9WQ81); experiment: Mycobacterium tuberculosis BioA enzyme inhibitor Measured in Biochemical System Using Plate Reader - 2163-02_Inhibitor_Dose_CherryPick_Activity.; assay type: functional, Mycobacterium tuberculosis UT205
Adenosylmethionine-8-amino-7-oxononanoate aminotransferase, sequence (P9WQ81 whole entry, the tested form may be a part): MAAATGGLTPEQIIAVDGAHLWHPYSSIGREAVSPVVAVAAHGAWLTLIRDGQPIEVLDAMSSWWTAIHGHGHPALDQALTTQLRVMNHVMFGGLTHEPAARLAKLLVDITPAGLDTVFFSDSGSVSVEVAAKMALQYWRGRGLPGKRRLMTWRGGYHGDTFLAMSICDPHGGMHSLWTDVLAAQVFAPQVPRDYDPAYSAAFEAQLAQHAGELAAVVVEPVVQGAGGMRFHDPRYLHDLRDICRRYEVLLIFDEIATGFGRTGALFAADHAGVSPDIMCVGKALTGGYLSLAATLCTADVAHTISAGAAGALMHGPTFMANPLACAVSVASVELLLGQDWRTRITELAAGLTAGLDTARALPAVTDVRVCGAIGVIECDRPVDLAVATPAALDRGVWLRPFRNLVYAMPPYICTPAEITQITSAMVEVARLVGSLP

[15] = biological target: T4, RNA-binding protein pos-1 (Caenorhabditis elegans, UniProt G5EF15); experiment: inhibitors of POS-1/mex-3 RNA binding, dose response, biochemical, fluorescence polarization (AID 1964);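 also: purified POS-1 fused to maltose binding protein made in E. coli; potency of compounds blocking POS-1 binding to fluorescent RNA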
T4 sequence (G5EF15 whole entry): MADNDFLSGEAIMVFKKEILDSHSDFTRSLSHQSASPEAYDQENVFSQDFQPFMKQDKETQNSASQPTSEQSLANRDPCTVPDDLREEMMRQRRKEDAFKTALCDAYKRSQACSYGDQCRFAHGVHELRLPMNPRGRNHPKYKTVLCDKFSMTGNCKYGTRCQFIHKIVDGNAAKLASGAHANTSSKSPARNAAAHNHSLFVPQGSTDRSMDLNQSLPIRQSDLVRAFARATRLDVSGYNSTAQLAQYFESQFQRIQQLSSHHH

Streptococcus = experiment: Group A Streptococcus viability loss, dose response, counter-screen for streptokinase expression inhibitor project, luminescence, BacTiterGlo (AID 1915); assay type: functional, organism-based;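 also: potency for reduction of bacterial viability or growth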
[16] = biological target: T5, Zinc finger protein mex-5 (Caenorhabditis elegans, UniProt Q9XUB2); experiment: MEX-5/TCR-2 RNA interaction inhibitors, dose response, biochemical, C. elegans, fluorescence polarization (AID 1960)
T5 sequence (Q9XUB2 whole entry): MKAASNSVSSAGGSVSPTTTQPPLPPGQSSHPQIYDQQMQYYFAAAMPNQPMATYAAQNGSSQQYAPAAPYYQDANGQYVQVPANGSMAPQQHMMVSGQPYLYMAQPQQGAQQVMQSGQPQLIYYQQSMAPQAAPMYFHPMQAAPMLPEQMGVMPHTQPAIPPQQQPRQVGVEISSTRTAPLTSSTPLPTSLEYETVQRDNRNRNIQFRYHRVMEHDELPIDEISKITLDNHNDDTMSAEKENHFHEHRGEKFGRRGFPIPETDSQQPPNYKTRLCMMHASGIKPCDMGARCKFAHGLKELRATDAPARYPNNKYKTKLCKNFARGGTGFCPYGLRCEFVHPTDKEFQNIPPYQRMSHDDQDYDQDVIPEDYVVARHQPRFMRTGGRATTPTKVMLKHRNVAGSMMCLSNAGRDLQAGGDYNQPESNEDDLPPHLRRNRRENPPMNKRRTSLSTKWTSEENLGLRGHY

Protein RecA = biological target: T6, Protein RecA (Mycobacterium tuberculosis, UniProt P9WHJ3); experiment: Fluorescence Cell-Free Homogeneous Dose Retest to Identify Inhibitors of RecA-Intein Splicing Activity. [Related pubchem assays (depositor defined):AID2097, AID2223, AID489010, AID492950]; assay type: functional
T6 sequence (P9WHJ3 whole entry): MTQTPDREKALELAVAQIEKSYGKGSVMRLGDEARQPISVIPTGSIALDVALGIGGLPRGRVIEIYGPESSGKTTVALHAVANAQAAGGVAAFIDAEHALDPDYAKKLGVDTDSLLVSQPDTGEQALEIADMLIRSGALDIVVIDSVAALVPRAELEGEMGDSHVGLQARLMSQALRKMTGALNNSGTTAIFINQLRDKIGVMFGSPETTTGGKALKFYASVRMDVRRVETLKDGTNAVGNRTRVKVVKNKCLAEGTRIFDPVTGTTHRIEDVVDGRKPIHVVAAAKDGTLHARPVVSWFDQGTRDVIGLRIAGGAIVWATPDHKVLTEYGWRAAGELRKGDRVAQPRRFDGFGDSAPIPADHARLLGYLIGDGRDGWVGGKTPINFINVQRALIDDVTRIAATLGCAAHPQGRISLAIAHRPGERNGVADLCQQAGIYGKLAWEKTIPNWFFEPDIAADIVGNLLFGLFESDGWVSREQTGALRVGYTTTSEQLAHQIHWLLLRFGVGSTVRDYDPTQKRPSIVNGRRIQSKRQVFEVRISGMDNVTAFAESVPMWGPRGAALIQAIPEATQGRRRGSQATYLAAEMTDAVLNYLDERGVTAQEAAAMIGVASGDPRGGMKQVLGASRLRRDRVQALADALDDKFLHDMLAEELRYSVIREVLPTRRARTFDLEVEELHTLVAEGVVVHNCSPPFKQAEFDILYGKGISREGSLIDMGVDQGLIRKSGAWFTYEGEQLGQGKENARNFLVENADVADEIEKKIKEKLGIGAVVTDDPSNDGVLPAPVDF

[17] = tested on: Streptococcus sp. 'group A'; experiment: growth inhibition of control SK(-) GAS strain, dose response, counter-screen for streptokinase expression inhibitor project, luminescence, kanamycin, BacTiterGlo, confirmation (AID 1900); assay type: functional, organism-based
Streptokinase A = biological target: T7, Streptokinase A (Streptococcus pyogenes serotype M1, UniProt P10520); experiment: S. pyogenes streptokinase expression inhibitors, potency, dose response, plasminogen activation absorbance, OD405 (AID 1914); assay type: functional, Streptococcus pyogenes M1 GAS;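 also: secreted streptokinase activity via plasminogen activation per viability signal from cell pellet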
T7 sequence (P10520 whole entry): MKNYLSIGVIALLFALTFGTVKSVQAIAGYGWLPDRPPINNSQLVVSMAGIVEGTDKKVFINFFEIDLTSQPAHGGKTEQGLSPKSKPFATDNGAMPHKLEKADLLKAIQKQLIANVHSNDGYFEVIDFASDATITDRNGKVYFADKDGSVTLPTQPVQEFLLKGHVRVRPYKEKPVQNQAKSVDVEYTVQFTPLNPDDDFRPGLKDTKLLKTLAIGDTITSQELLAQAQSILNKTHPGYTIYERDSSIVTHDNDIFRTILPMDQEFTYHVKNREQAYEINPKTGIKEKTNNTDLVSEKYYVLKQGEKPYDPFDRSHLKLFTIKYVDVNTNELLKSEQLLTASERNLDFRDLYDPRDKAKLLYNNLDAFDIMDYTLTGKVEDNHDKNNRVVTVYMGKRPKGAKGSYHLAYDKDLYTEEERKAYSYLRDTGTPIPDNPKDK

[18] = biological target: T8, Replicative DNA helicase DnaB (Mycobacterium tuberculosis, UniProt P9WMR3); experiment: DnaB intein splicing inhibitors, dose response, biochemical, cell-free fluorescence (AID 449749); assay type: functional
T8 sequence (P9WMR3 whole entry): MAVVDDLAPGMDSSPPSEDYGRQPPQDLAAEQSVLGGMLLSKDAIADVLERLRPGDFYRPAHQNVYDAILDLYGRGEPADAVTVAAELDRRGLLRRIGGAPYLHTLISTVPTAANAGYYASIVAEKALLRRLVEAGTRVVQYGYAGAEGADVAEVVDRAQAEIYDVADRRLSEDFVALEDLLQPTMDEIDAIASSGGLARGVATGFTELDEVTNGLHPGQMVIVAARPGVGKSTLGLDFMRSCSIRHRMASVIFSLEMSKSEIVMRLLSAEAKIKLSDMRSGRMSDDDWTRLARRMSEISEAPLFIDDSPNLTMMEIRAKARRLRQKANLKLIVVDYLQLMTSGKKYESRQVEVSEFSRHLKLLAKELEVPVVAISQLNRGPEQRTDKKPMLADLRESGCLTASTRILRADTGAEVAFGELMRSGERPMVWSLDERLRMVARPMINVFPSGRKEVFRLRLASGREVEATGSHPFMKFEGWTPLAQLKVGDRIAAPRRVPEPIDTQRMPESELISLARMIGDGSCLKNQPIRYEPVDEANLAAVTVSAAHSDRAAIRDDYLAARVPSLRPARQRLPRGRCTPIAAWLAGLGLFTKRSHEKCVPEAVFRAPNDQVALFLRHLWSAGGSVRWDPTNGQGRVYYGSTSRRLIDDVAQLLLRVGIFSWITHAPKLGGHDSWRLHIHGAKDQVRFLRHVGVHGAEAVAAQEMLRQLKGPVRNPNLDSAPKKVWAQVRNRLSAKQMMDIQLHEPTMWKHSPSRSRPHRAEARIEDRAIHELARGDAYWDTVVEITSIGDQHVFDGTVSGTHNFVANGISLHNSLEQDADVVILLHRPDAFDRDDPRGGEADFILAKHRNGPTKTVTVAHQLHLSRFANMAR

72 kDa type IV collagenase, sequence (P08253 whole entry): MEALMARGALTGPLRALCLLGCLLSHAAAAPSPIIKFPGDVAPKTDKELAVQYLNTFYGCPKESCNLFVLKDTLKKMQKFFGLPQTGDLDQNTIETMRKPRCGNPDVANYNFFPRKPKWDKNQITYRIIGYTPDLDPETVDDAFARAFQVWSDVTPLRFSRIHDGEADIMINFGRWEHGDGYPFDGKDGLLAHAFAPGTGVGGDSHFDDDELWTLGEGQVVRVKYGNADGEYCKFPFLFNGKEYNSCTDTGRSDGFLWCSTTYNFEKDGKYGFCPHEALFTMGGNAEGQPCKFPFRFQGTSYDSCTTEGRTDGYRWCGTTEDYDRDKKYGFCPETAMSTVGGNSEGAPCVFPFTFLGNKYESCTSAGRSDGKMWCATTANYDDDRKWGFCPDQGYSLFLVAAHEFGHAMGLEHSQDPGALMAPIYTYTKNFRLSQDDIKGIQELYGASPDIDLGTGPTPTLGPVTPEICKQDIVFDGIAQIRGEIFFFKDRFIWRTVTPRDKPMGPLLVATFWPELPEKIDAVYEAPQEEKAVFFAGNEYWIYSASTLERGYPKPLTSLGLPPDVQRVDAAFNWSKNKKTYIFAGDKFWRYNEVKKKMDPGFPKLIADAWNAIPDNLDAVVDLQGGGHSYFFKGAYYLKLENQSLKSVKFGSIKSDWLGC

SMILES: O=C(O)CCCCN1C(=O)/C(=C\c2ccc(OCc3ccccc3)c(OCc3ccccc3)c2)SC1=S
- IC50 [1]: > 100 µM (inactive)
- IC50 [2]: 45.4 µM (active)
- IC50 (Prothrombin): 29.3 µM (active)

SMILES: Cc1ccc(C)c(N2CCN(S(=O)(=O)c3ccc4nc(O)c(O)nc4c3)CC2)c1
- IC50 [3]: 5.39 µM (active)
- IC50 [4]: 25.9 µM (active)

SMILES: O=C(CSc1nc(-c2ccc(F)cc2)nc2c1Cc1ccccc1O2)Nc1cccc(C(=O)O)c1
- IC50 [5]: 4.27 µM (active)
- IC50 [6]: 2.26 µM (active)
- IC50 [7]: 0.353 µM (active)
- IC50 [8]: > 66.6 µM (inactive)
- IC50 [9]: > 50 µM (not active)
- IC50 [10]: 0.443 µM (active)
- IC50 [11]: 50 µM (inactive)

SMILES: Cc1cccc(C)c1Nc1nnc(SC/C(O)=C(\C#N)c2nc3ccccc3[nH]2)s1
- IC50 [3]: 9.49 µM (active)
- IC50 [4]: 25.2 µM (active)

SMILES: COc1ccccc1NC(=O)CN1CCN(CC(=O)Nc2ccc(S(N)(=O)=O)cc2)CC1
- IC50 [12]: 25.9 µM (inactive)
- IC50 (Steroidogenic factor 1): 6.64 µM (active)
- IC50 [13]: 35.9 µM (inactive)

SMILES: O=C(Nc1cccc(F)c1)C1CCCN(c2cnccn2)C1 (configuration not stated)
- AC50 [14]: 5.41 µM (active)

SMILES: O=C(N/N=C/c1cc(Cl)cc([N+](=O)[O-])c1O)c1ccccc1NS(=O)(=O)c1cccs1
- EC50 [15]: 282 µM (active)
- EC50 (Streptococcus): 18.9 µM (active)
- EC50 [16]: 1.56 µM (inconclusive)
- EC50 (Protein RecA): 67.2 µM (active)
- EC50 [17]: 4.31 µM (active)
- EC50 (Streptokinase A): > 150 µM (not active)
- IC50 [1]: > 100 µM (inactive)
- IC50 [2]: 10.4 µM (active)
- IC50 (Prothrombin): 85.5 µM (active)
- AC50 [18]: 15.9 µM (active)

SMILES: CC(=O)c1ccc(NC(=O)C(C)ONC(=N)c2ccccc2)cc1 (configuration not stated)
- IC50 [12]: 23.8 µM (inactive)
- IC50 (Steroidogenic factor 1): 6.11 µM (active)
- IC50 [13]: 35.9 µM (inactive)

SMILES: O=C(C[C@@H]1C[C@H]2c3cc(NC(=O)c4cccnc4)ccc3O[C@H]2[C@@H](CO)O1)NCc1cc(F)ccc1F
- AC50 [14]: 12.6 µM (active)
